Measurements as given in patent US9718770B2, “Substituted thioureas as heat shock protein 70 inhibitors” (Institute of Pharmacology and Toxicology Academy of …, priority 2013, dated 2017).

How the values were obtained:
BT/Lap^R1.0 = experiment: CDI of example compounds and Lapatinib (ATPlite cell survival); format: cell-based; conditions: compound 5 μM + Lapatinib 1 μM, 72 h; secondary Lapatinib-resistant human breast cancer cells; CDI<1 synergistic
Experimental: (§1) Cells: (BT474 and SK-BR3 are Lapatinib-sensitive human breast cancer cell strains; BT/LapR and SK/LapR are secondary Lapatinib-resistant human breast cancer cell strains upon Lapatinib stimulation; MDA-MB-361 and MDA-MB-453 are natural Lapatinib-resistant human breast cancer cell strains. BT474, MDA-MB-361, SK-BR3 and MDA-MB-453 are from American Type Culture Collection (ATCC))
(§2) In a 100 mm culture dish full of adherent cells, digestion with 1 ml 0.25% pancreatin (GIBCO) was carried out at 37° C. for 5 min, and the reaction was stopped with 2 ml medium (containing 10% FBS, GIBCO). The cells were dispersed and collected. After cell count, the cells were diluted to a concentration of 1×10^5 cells/ml, and were seeded to a 96-well plate at 50 μl/well, 5000 cell/well, 60 wells in total, PBS instead of cells was added to the wells of the outmost circle, and the incubation was carried out at 37° C. for 24 h for adherence.
(§3) For the sample group, samples to be tested were diluted with DMSO to a final concentration of 5 μM; to control wells, the medium containing the same concentration of solvent corresponding to the compound was added, the concentrations of the compounds were identical in each well, 5 wells in parallel were set for each concentration, 25 μL/well, and 25 μL medium was added to each well (for the combination group, 25 μL Lapatinib was added to reach a final concentration of 1 μM). The incubation was carried out at 37° C. for 72 h.
(§4) To each well, 50 μL ATPlite kit substrate solution was added. The plate was under shaking for 3 min, and was then placed in dark for 10 min. The lysis supernatant was drawn at 100 μL/well, and placed in a luminescent plate. The incubated luminescent plate was placed in an iluminescence apparatus, and the iluminescent value was read.
(§5) Data Processing Cell survival rate (%)=Experimental group RLU/control group RLU×100%
(§6) Coefficient of drug interaction (CDI) is used to evaluate the interaction of two drugs, CDI is calculated in accordance with the following formula: CDI=AB/(A×B)×100%. The calculation is performed according to the number of live cells (luminescent value), if CDI<1, the two drugs have a synergistic effect; if CDI<0.7, the synergistic effect is very significant; if CDI=1, the effect of the two drugs in combination is the sum of the effects of the two drugs; if CDI>1, the two drugs have an antagonistic effect.

SK/Lap^R1.0 = experiment: as above; format: cell-based; conditions: compound 5 μM + Lapatinib 1 μM, 72 h; secondary Lapatinib-resistant human breast cancer cells; CDI<1 synergistic
Experimental: as §1, §2, §3, §4, §5, §6

Hsp70 ATPase = biological target: T1, Hsp70 ATPase (Homo sapiens, UniProt P0DMV8); experiment: Inhibition of Hsp70 ATPase activity (malachite green); format: biochemical; conditions: 200 μM; repeated screening carried out twice; Hsp70/Hsp40, 1 mM ATP; read-out: Inhibitory rate (%) on activity of Hsp70 ATPase
T1 construct: made in house; host or cells: E. coli
T1 sequence (P0DMV8 2-641 limits assumed): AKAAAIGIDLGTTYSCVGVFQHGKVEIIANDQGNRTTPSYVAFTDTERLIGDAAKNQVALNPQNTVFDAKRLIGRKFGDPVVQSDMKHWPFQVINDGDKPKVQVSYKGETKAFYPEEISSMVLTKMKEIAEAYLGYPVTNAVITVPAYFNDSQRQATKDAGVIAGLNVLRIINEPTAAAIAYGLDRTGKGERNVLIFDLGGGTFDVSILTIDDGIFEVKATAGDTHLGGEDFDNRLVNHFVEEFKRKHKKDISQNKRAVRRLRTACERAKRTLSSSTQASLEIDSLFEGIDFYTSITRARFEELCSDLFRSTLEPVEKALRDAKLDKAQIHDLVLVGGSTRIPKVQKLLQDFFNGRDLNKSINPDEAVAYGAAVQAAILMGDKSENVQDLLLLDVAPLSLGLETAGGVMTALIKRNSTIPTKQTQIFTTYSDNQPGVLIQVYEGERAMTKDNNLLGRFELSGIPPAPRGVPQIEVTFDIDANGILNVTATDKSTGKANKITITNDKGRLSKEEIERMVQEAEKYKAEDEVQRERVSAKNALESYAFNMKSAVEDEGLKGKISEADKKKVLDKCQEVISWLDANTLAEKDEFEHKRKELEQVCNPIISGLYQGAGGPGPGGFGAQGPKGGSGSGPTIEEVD
Experimental: (1) Protein: Humanized Hsp70, Hsp40, expressed by E. coli.
(2) Sample to be tested: 26 compound solids with different colors and states. Positive drugs AZ (CAS:1054543-47-3) and VER 155008 (CAS: 1134156-31-2) were synthesized in the laboratory.
(4) ATPase Assay buffer: • 0.017% Triton X-100; • 100 mM Tris-HCl; • 20 mM KCl; • 6 mM MgCl2, pH 7.4.
1) 13.08 μl DnaK (0.15 mg/mL, 2.14 μM), 1.96 μl DnaJ (1 mg/mL, 25 μM) were dissolved in 7.96 μl Assay Buffer (0.017% Triton X-100, 100 mM Tris-HCl, 20 mM KCl, and 6 mM MgCl2, pH 7.4), and the resultant solution was added to each well of the 96 well plate;
2) to each well of the 96 well plate, 1 μL sample to be tested (5 mM) or DMSO (solvent) was added, and vortexed with a Vortex agitator for 10 min; and then standing at 37° C. for 30 min;
3) to each well, 1 μL 25 mM ATP was added, to trigger the enzymatic reaction; (in each well, the final reaction volume was 25 μL, the final concentration of DnaK was 1.12 μM, the final concentration of DnaJ was 1.96 μM, the final concentration of DMSO was 4%, the final concentration of Triton X-100 was 0.01%, the final concentration of ATP was 1 mM, and the final concentration of sample to be tested was 200 μM), the enzymatic reaction was carried out at 37° C. for 3 h;
4) 80 μL Malachite green staining solution was then added to each well, and was vortexed gently;
5) 10 μL of 34% citrate sodium was then added immediately, and vortexed gently, to stop the ATP hydrolysis not caused by ATPase;
6) the resultant mixture was mixed thoroughly at 37° C. for 15 min, and OD620 was measured.
The inhibitory rate of Hsp70 ATPase activity is calculated in accordance with the following formula: Inhibitory rate (%)=(DMSO well OD−Experimental well OD)/(DMSO well OD−Blank well OD)×100
Criteria for preliminary screening: during preliminary screening, an example compound is regarded as effective in inhibition as long as its inhibitory rate is above 20% for Hsp70 ATPase at 200 μM.

SK-BR3 = experiment: CDI of example compounds and Lapatinib (ATPlite cell survival); format: cell-based; set-up: key: CDI = AB/(A×B); <1 synergistic; conditions: compound 5 μM + Lapatinib 1 μM, 72 h; Lapatinib-sensitive human breast cancer cells; CDI<1 synergistic
Experimental: as §1, §2, §3, §4, §5, §6

MDA-MB-453 = experiment: as above; format: cell-based; set-up: key: CDI = AB/(A×B); <1 synergistic; conditions: compound 5 μM + Lapatinib 1 μM, 72 h; natural Lapatinib-resistant human breast cancer cells; CDI<1 synergistic
Experimental: as §1, §2, §3, §4, §5, §6

MDA-MB-361 = experiment: as above; format: cell-based; set-up: key: CDI = AB/(A×B); <1 synergistic; conditions: compound 5 μM + Lapatinib 1 μM, 72 h; natural Lapatinib-resistant human breast cancer cells; CDI<1 synergistic
Experimental: as §1, §2, §3, §4, §5, §6

BT474 = experiment: as above; format: cell-based; set-up: key: CDI = AB/(A×B); <1 synergistic; conditions: compound 5 μM + Lapatinib 1 μM, 72 h; Lapatinib-sensitive human breast cancer cells; CDI<1 synergistic, <0.7 very significant, >1 antagonistic
Experimental: as §1, §2, §3, §4, §5, §6

| SMILES | CDI of example compounds and Lapatinib, BT/Lap^R1.0 (BT/Lap^R1.0) | CDI of example compounds and Lapatinib, SK/Lap^R1.0 (SK/Lap^R1.0) | inhibition at 200 µM (Hsp70 ATPase) | CDI of example compounds and Lapatinib, SK-BR3 (SK-BR3) | CDI of example compounds and Lapatinib, MDA-MB-453 (MDA-MB-453) | CDI of example compounds and Lapatinib, MDA-MB-361 (MDA-MB-361) | CDI of example compounds and Lapatinib, BT474 (BT474) |
| --- | --- | --- | --- | --- | --- | --- | --- |
| COc1cc(/C=C/C(=O)NC(NC(=S)Nc2cccnc2)C(C)(C)C)cc(OC)c1OC (stereo not drawn) [Example 27, (2E)-N-[2,2-dimethyl-1-(3-pyridin-3-ylthioureido)propyl]-3-(3,4,5-trimethoxyphenyl) acrylamide] | 1.01 | 0.97 | 2.17% | 1 | 1.32 | 0.96 | 0.98 |
| CC(C)C(NC(=O)/C=C/c1ccccc1)NC(=S)NC1CCCCC1 (stereo not drawn) [Example 55, N-[1-(3-cyclohexylthioureido)-2-methylpropyl] cinnamamide] | 1.01 | 1.8 | 25.9% | 1.2 | 1.41 | 0.94 | 0.89 |
| COc1cc(/C=C/C(=O)NC(CC(C)C)NC(=S)NC2CCCCC2)cc(OC)c1OC (stereo not drawn) [Example 51, (2E)-N-[1-(3-cyclohexylthioureido)-3-methylbutyl]-3-(3,4,5-trimethoxyphenyl) acrylamide] | 0.94 | 1.38 | 46.2% | 0.96 | 1.27 | 1.09 | 0.73 |
| COc1cc(/C=C/C(=O)NC(NC(=S)Nc2ccccc2C)C(C)(C)C)cc(OC)c1OC (stereo not drawn) [Example 44, (2E)-N-[2,2-dimethyl-1-(3-o-methylphenylthioureido)propyl]-3-(3,4,5-trimethoxyphenyl)acrylamide] | 0.93 | 0.98 | 50.5% | 0.96 | 1.12 | 0.93 | 0.94 |
| Cc1ccccc1NC(=S)NC(NC(=O)/C=C/c1ccccc1)C1CC1 (stereo not drawn) [Example 49, N-[cyclopropyl-(3-o-methylphenylthioureido)-methyl] cinnamamide] | 0.96 | 0.99 | 65.4% | 1.08 | 1.2 | 0.95 | 0.9 |
| COc1cc(/C=C/C(=O)NC(CC(C)C)NC(=S)Nc2ccccn2)cc(OC)c1OC (stereo not drawn) [Example 31, (2E)-N-[3-methyl-1-(3-pyridin-2-ylthioureido)butyl]-3-(3,4,5-trimethoxyphenyl) acrylamide] | 1.2 | 0.95 | 10.5% | 1 | 1.38 | 0.85 | 1.01 |
| COc1cc(/C=C/C(=O)NC(CC(C)(C)C)NC(=S)Nc2cccnc2)cc(OC)c1OC (stereo not drawn) [Example 33, (2E)-N-[3,3-dimethyl-1-(3-pyridin-3-ylthioureido)butyl]-3-(3,4,5-trimethoxyphenyl) acrylamide] | 0.97 | 0.88 | 47.1% | 0.96 | 1.19 | 0.89 | 0.81 |
| COc1cc(/C=C/C(=O)NC(NC(=S)Nc2ccccc2C)C2CC2)cc(OC)c1OC (stereo not drawn) [Example 45, (2E)-N-[cyclopropyl-(3-o-methylphenylthioureido)-methyl]-3-(3,4,5-trimethoxyphenyl) acrylamide] | 0.79 | 1.04 | 19.3% | 1.05 | 0.98 | 0.93 | 1.59 |
| CC(C)CC(NC(=O)/C=C/c1ccccc1)NC(=S)Nc1ccccc1 (stereo not drawn) [Example 38, (2E)-N-[3-methyl-1-(3-phenylthioureido)butyl] cinnamamide] | 0.93 | 0.93 | 2.51% | 1.16 | 1.21 | 1 | 0.86 |
